Reference: US7078059B2, “Treatment of bone diseases” (Shire Holdings AG, priority 2000, dated 2006)
Several values for one entry are separate records, joined by “and”; a condition that tells them apart may be missing. Identical values can stand only once. Entries after “also recorded” stand apart in the source; their conditions may differ. Like-named read-outs stand apart in the source and are kept apart here.

Legend:
[1] = system: osteoclast precursors in mouse bone marrow; settings: for Relative TRAP 5b activities, Mean ± SD: relative to mean of baseline group; for Combined results on osteoclast differentiation (relative TRAP 5b activity), Mean ± SD: tables 4-6 combined, number 18 (LA 100) or 12
Description: A method known as mouse bone marrow culture system is the one most widely used to study osteoclast differentiation. Originally, this method was developed by Takahashi et al. (1988a). Osteoclast precursors in mouse bone marrow can be induced to form multinucleated osteoclast-like cells (MNC) in the presence of either an active metabolite of vitamin D3 (1,25(OH)2D3) or parathyroid hormone (PTH). […] They form pits on bone or dentine slices (Takahashi et al. 1988a, Hattersley and Chambers 1989, Shinar et al. 1990); they express high levels of tartrate-resistant acid phosphatase (TRAP) and calcitonin receptors (Takahashi et al. 1988b, Shinar et al. 1990); and they respond to calcitonin (Takahashi et al. 1988a) and prostaglandin E2 (Collins and Chambers 1992). Thus, the method is an ideal one with which to study both stimulators and inhibitors of osteoclast differentiation.
In the original culture system, the osteoclast formation was determined after an 8-day culture. In bone marrow, both non-adherent osteoclast precursors and stromal cells are present, the latter of which are needed to support osteoclast formation. The number of osteoclasts formed is generally determined by counting the number of TRAP-positive MNC containing at least three nuclei (Takahashi et al. 1988a).
We have modified the original assay so that we culture 1×10^6 mouse marrow cells/ml for 6 days. […] Instead of counting of the number of differentiated osteoclasts formed, we measured the amount of TRAP liberated from osteoclasts into the culture medium using a fast, simple TRAP immunoassay (Halleen et al. 1999) presentation in the Annual Meeting of the American Society for Bone and Mineral Research, Sep. 30-Oct. 4, 1999, in St. Louis, Mo., USA.
8-10-week old mice were killed with CO2. Tibia and femora were dissected free from adhering soft tissues. The bone ends were cut off with a scalpel and the marrow was flushed with α-Minimal Essential Medium (α-MEM, Gibco BRL, Paisley, UK) supplemented with 100 IU/ml penicillin and 100 μg/ml streptomycin. A 10 ml syringe with a 27 gauge needle was used for flushing. Cells were centrifuged at 600×G for 10 minutes and the cell pellet was resuspended in -MEM containing 10% fetal calf serum. Cells were allowed to attach to plastic for 2 h at 37° C. in a 5% CO2 incubator to allow removal of monocytes and macrophages. Nonadherent cells were duly removed, and the […] bone marrow cells were cultured in 24-well plates (1×10^6 cells/well=1 ml) for 6 days. Half of the media were changed at day 3 and the treatments replaced. At the end of the culture, the plates were fixed with 2% paraformaldehyde in PBS for 20 minutes. Osteoclast formation was determined by measuring TRAP activity from the culture media using the novel TRAP immunoassay (vide infra), where we use a polyclonal TRAP antiserum prepared in rabbits against purified human bone TRAP. The TRAP antibody was bound to anti-rabbit IgG coated microtiter wells (Gibco BRL, Paisley, UK), and medium TRAP was then bound to the antibody. The activity of bound TRAP was measured in sodium acetate buffer using pNPP as substrate.
In this study, the effect of the lanthanum (III) ion on osteoclast differentiation in the presence of 1,25-dihydroxyvitamin D3 was tested. The following sample groups were included: • Baseline (including vehicle) • Control (Baseline without 1,25-dihydroxyvitamin D3) • Baseline+100 ng/ml lanthanum • Baseline+500 ng/ml lanthanum • Baseline+1000 ng/ml lanthanum • Baseline+5000 ng/ml lanthanum • Baseline+15000 ng/ml lanthanum
Six replicates were included in each group, and the test was performed twice. Baseline without 1,25-dihydroxyvitamin D3 was used as a control to show the test system allows inhibition of osteoclast differentiation to be detected.

[2] = system: mouse bone marrow derived osteoprogenitor cells; experiment: In vitro osteoblast differentiation assay (cellular alkaline phosphatase); format: cell-based; settings: LA number = ng/ml lanthanum; for Effect on osteoblast differentiation, in words: lanthanum (III) ion = 100-15000 ng/ml, 17-estradiol 10^−10 M; for Relative specific activities of intracellular alkaline phosphatase, Mean ± SD / Relative specific activities of intracellular alkaline phosphatase, replicates 1-8 / Relative specific activities of intracellular alkaline phosphatase, replicates 1-4 / Relative specific activities or intracellular alkaline phosphatase, Mean ± SD / Relative specific activities or intracellular alkaline phosphatase, replicates 1-6: relative to mean of baseline group, 8 days; for Relative specific activities of intracellular alkaline phosphatase, Mean ± SD / Relative specific activities of intracellular alkaline phosphatase, replicates 1-8 / Relative specific activities of intracellular alkaline phosphatase, replicates 1-4 / Relative specific activities or intracellular alkaline phosphatase, Mean ± SD / Relative specific activities or intracellular alkaline phosphatase, replicates 1-6 / Combined results on osteoblast differentiation (relative specific ALP activity), Mean ± SD: Control = Baseline+10^−10 M 17-estradiol; for Relative specific activities or intracellular alkaline phosphatase, Mean ± SD / Relative specific activities or intracellular alkaline phosphatase, replicates 1-6: second osteoblast differentiation assay; for Combined results on osteoblast differentiation (relative specific ALP activity), Mean ± SD: tables 8-10 combined, number 18
Description: We have established a culture model in which mouse bone marrow derived osteoprogenitor cells first proliferate and then differentiate to osteoblasts capable of forming mineralized bone nodules (Qu et al. 1998, Qu et al. 1999). We confirmed this by following the expression of several markers of the osteoblastic phenotype and by studying the morphology of cultures at light and electron microscopic level. […] Thus, this culture system fulfills requirements of an in vitro model useful for studying differentiation of osteoprogenitor cells into bone synthesizing osteoblasts. […] Animals were killed by cervical dislocation. Both femora were removed and the soft tissues were detached aseptically. Metaphyses from both ends were cut off and bone marrow cells were collected by flushing the diaphysis with culture medium: phenol red-free-α-modified essential medium (α-MEM (Gibco BRL, Paisley, UK)). […] The cells were cultured for 6 days and half of the media […] days. […] Cells were washed with warm PBS and adherent cells were detached using trypsin-EDTA. […] The test substances were added at the beginning of the secondary culture without estrogen, and every time when the medium was changed. The number of osteoblasts formed was determined by measuring cellular alkaline phosphatase (ALP) activity in the culture. […] Louis, Mo., USA), and overnight freezing. ALP activity was determined colorimetrically using p-nitrophenylphosphate as substrate at pH 9.7 and determining the optical density at 405 nm. In parallel, protein contents of the wells were determined by the BIO-RAD protein assay, and the specific ALP activity is expressed as units/mg protein. […] Osteoblast differentiation was determined by measuring cellular alkaline phosphatase (ALP) activities and total protein amounts from cell lysates. The ALP activities were divided with the corresponding protein amounts to obtain specific activities of ALP. The results are shown as relative specific activities obtained by dividing each individual value with the mean value of the baseline group.

[3] = first osteoclast differentiation assay, with 1,25-dihydroxyvitamin D3, 6 days, LA number = ng/ml lanthanum
[4] = second osteoclast differentiation assay, with 1,25-dihydroxyvitamin D3, 6 days, LA number = ng/ml lanthanum
[5] = first osteoblast differentiation assay
[6] = preliminary osteoblast differentiation assay

Structure (SMILES): O.O.O.O.O=C([O-])[O-].O=C([O-])[O-].O=C([O-])[O-].[La+3].[La+3] [LA 500, lanthanum carbonate tetrahydrate]
- Relative TRAP 5b activities, Mean ± SD [1, 3]: 0.71 ± 0.22
- Relative TRAP 5b activities, Mean ± SD [1, 4]: 1.07 ± 0.24
- Combined results on osteoclast differentiation (relative TRAP 5b activity), Mean ± SD ([1]; LA number = ng/ml lanthanum): 0.89 ± 0.29
- Effect on osteoblast differentiation, in words [2]: No significant response; also recorded: do not decrease the formulation of osteoblasts
- Relative specific activities of intracellular alkaline phosphatase, Mean ± SD [2, 5]: 0.90 ± 0.14
- Relative specific activities of intracellular alkaline phosphatase, replicates 1-8 [2, 5]: 0.95 and 0.96 and 0.62
- Relative specific activities of intracellular alkaline phosphatase, Mean ± SD [2, 6]: 1.01 ± 0.07
- Relative specific activities of intracellular alkaline phosphatase, replicates 1-4 [2, 6]: 0.96 and 0.98 and 0.99 and 1.11
- Relative specific activities or intracellular alkaline phosphatase, Mean ± SD [2]: 0.93 ± 0.14
- Relative specific activities or intracellular alkaline phosphatase, replicates 1-6 [2]: 0.88 and 0.89 and 1.10 and 1.09 and 0.75 and 0.90
- Combined results on osteoblast differentiation (relative specific ALP activity), Mean ± SD [2]: 0.94 ± 0.13

Structure (SMILES): O.O.O.O.O=C([O-])[O-].O=C([O-])[O-].O=C([O-])[O-].[La+3].[La+3] [LA 100, lanthanum carbonate tetrahydrate]
- Relative TRAP 5b activities, Mean ± SD [1, 3]: 0.87 ± 0.33
- Relative TRAP 5b activities, Mean ± SD [1, 4]: 0.54 ± 0.15(**)
- Combined results on osteoclast differentiation (relative TRAP 5b activity), Mean ± SD ([1]; LA number = ng/ml lanthanum): 0.70 ± 0.27 (**)
- Relative TRAP 5b activities, Mean ± SD ([1]; third osteoclast differentiation assay with LA 100 (100 ng/ml lanthanum)): 0.69 ± 0.21(*)
- Effect on osteoblast differentiation, in words [2]: activated osteoblast differentiation significantly; also recorded: activate both bone formation and osteoblast differentiation
- Relative specific activities of intracellular alkaline phosphatase, Mean ± SD [2, 5]: 1.05 ± 0.17
- Relative specific activities of intracellular alkaline phosphatase, replicates 1-8 [2, 5]: 0.95 and 1.04 and 0.98
- Relative specific activities of intracellular alkaline phosphatase, Mean ± SD [2, 6]: 1.15 ± 0.13
- Relative specific activities of intracellular alkaline phosphatase, replicates 1-4 [2, 6]: 0.98 and 1.29 and 1.19 and 1.12
- Relative specific activities or intracellular alkaline phosphatase, Mean ± SD [2]: 1.14 ± 0.22
- Relative specific activities or intracellular alkaline phosphatase, replicates 1-6 [2]: 0.91 and 0.94 and 1.34 and 1.20 and 1.00 and 1.43
- Combined results on osteoblast differentiation (relative specific ALP activity), Mean ± SD [2]: 1.10 ± 0.18 (*)

Structure (SMILES): O.O.O.O.O=C([O-])[O-].O=C([O-])[O-].O=C([O-])[O-].[La+3].[La+3] [LA 15000, lanthanum carbonate tetrahydrate]
- Relative TRAP 5b activities, Mean ± SD [1, 3]: 0.36 ± 0.27(*)
- Relative TRAP 5b activities, Mean ± SD [1, 4]: 0.25 ± 0.07(***)
- Combined results on osteoclast differentiation (relative TRAP 5b activity), Mean ± SD ([1]; LA number = ng/ml lanthanum): 0.30 ± 0.19 (***)
- Effect on osteoblast differentiation, in words [2]: inhibited
- Relative specific activities of intracellular alkaline phosphatase, Mean ± SD [2, 5]: 0.40 ± 0.07(***)
- Relative specific activities of intracellular alkaline phosphatase, replicates 1-8 [2, 5]: 0.39 and 0.35 and 0.43
- Relative specific activities of intracellular alkaline phosphatase, Mean ± SD [2, 6]: 0.50 ± 0.03(***)
- Relative specific activities of intracellular alkaline phosphatase, replicates 1-4 [2, 6]: 0.51 and 0.49 and 0.47 and 0.54
- Relative specific activities or intracellular alkaline phosphatase, Mean ± SD [2]: 0.28 ± 0.07(***)
- Relative specific activities or intracellular alkaline phosphatase, replicates 1-6 [2]: 0.27 and 0.13 and 0.33 and 0.32 and 0.29 and 0.31
- Combined results on osteoblast differentiation (relative specific ALP activity), Mean ± SD [2]: 0.38 ± 0.11 (***)

Structure (SMILES): O.O.O.O.O=C([O-])[O-].O=C([O-])[O-].O=C([O-])[O-].[La+3].[La+3] [LA 5000, lanthanum carbonate tetrahydrate]
- Relative TRAP 5b activities, Mean ± SD [1, 3]: 0.44 ± 0.06(*)
- Relative TRAP 5b activities, Mean ± SD [1, 4]: 0.56 ± 0.27(*)
- Combined results on osteoclast differentiation (relative TRAP 5b activity), Mean ± SD ([1]; LA number = ng/ml lanthanum): 0.50 ± 0.20 (***)
- Effect on osteoblast differentiation, in words [2]: inhibited
- Relative specific activities of intracellular alkaline phosphatase, Mean ± SD [2, 5]: 0.53 ± 0.06(***)
- Relative specific activities of intracellular alkaline phosphatase, replicates 1-8 [2, 5]: 0.54 and 0.59 and 0.55
- Relative specific activities of intracellular alkaline phosphatase, Mean ± SD [2, 6]: 0.47 ± 0.03(***)
- Relative specific activities of intracellular alkaline phosphatase, replicates 1-4 [2, 6]: 0.42 and 0.46 and 0.50 and 0.48
- Relative specific activities or intracellular alkaline phosphatase, Mean ± SD [2]: 0.41 ± 0.10(***)
- Relative specific activities or intracellular alkaline phosphatase, replicates 1-6 [2]: 0.31 and 0.51 (2×) and 0.49 and 0.28 and 0.40
- Combined results on osteoblast differentiation (relative specific ALP activity), Mean ± SD [2]: 0.48 ± 0.09 (***)

Structure (SMILES): O.O.O.O.O=C([O-])[O-].O=C([O-])[O-].O=C([O-])[O-].[La+3].[La+3] [LA 1000, lanthanum carbonate tetrahydrate]
- Effect on osteoclast differentiation, in words ([1]; LA number = ng/ml lanthanum, vs baseline with 1,25-dihydroxyvitamin D3): decreases the formation of osteoclasts
- Relative TRAP 5b activities, Mean ± SD [1, 3]: 0.60 ± 0.25
- Relative TRAP 5b activities, Mean ± SD [1, 4]: 0.69 ± 0.21
- Combined results on osteoclast differentiation (relative TRAP 5b activity), Mean ± SD ([1]; LA number = ng/ml lanthanum): 0.65 ± 0.23 (**)
- Effect on osteoblast differentiation, in words [2]: No significant response; also recorded: do not decrease the formulation of osteoblasts
- Relative specific activities of intracellular alkaline phosphatase, Mean ± SD [2, 5]: 0.94 ± 0.14
- Relative specific activities of intracellular alkaline phosphatase, replicates 1-8 [2, 5]: 1.01 and 0.78 and 0.81
- Relative specific activities of intracellular alkaline phosphatase, Mean ± SD [2, 6]: 0.94 ± 0.19
- Relative specific activities of intracellular alkaline phosphatase, replicates 1-4 [2, 6]: 0.69 and 1.13 and 0.92 and 1.01
- Relative specific activities or intracellular alkaline phosphatase, Mean ± SD [2]: 0.88 ± 0.21
- Relative specific activities or intracellular alkaline phosphatase, replicates 1-6 [2]: 0.73 and 0.71 and 1.19 and 0.81 and 0.72 and 1.09
- Combined results on osteoblast differentiation (relative specific ALP activity), Mean ± SD [2]: 0.92 ± 0.17
